Source: patent EP4516289A1, “ANTIVIRAL NASAL SPRAY COMPRISING FAVIPIRAVIR” (SPH Sine Pharmaceutical Laboratories Co., Ltd, priority 2023, dated 2025)
Converted amounts (≈) assume the structure as drawn.

Key:
[1] = cited from earlier work
[2] = Solubility of micronized FPV in different organic solvents (visual inspection); assay type: physicochemical; conditions: thermodynamic from solid
Description: In order to check for a possible improvement of FPV solubility in an aqueous solvent, it was decided to follow the protocol of WO2017009480. As a first task it was necessary to find a suitable organic solvent for pre-dissolution of FPV prior to adding the pre-dissolved FPV to the buffered aqueous solvent. The results are depicted in Table 1 Table 1: Solubility of micronized FPV in different organic solvents

[3] = Solubility and storage stability of aqueous FPV formulations (RP-HPLC on day 0 and day 7); assay type: physicochemical; conditions: for solubility: thermodynamic from solid; for highest starting concentration of dissolved FPV: HPLC day 0, calculated approx. 17 mg/ml
Method: In order to determine the maximum solubility of FPV in water various samples of either raw or micronized FPV powder have been prepared. […] In this experimental set-up, the FPV starting concentration was adjusted to a calculated value of 5 mg/ml. After admixture of all ingredients the experimental samples contained 10 %v/v PEG 400, 2 %wt dexpanthenol, and either a citrate or a phosphate buffer, or a combination of both, adjusted to pH 5.5. The selected saponins were tested each in three concentrations, i.e. escin: 0.10, 0.25 and 0.50% w/v, and glycyrrhizin: 1.0, 2.5 and 5.0% w/v. Glycyrrhizin was applied in the form of dipotassium glycyrrhizinate in this and all other examples. For the quantification of FPV contents in the experimental sample formulations, an RP-HPLC method using a Zorbax Eclipse Plus C18 column from Agilent Technologies was applied and adapted for the present purpose. The results of the storage stability test of the various FPV containing samples are depicted in Table 2. Table 2: Storage stability of different aqueous formulations of 5 mg/ml FPV In an attempt to raise the starting concentration of FPV in a pharmaceutically acceptable aqueous solvent the PEG 400 / FPV stock solution was applied in an amount such as to increase the theoretical / calculated FPV concentration from 5 to about 10mg/ml, more precisely to 9.5mg/ml. After admixture of the predetermined portion of PEG 400 solvent comprising FPV to the aqueous buffer solution the resulting samples contained 10.5 %v/v PEG 400, and 2% dexpanthenol in phosphate buffer pH 5.5. The selected saponins were applied in the following concentrations: escin: 0.01 and 0.05 %w/v; glycyrrhizin: 1.0, 2.5 and 5.0 %w/v. The sample formulations were analyzed by HPLC on day 0 and day 7, the results being depicted in Table 3. Table 3: Storage stability of different aqueous formulations of 9.5 mg/ml FPV In a next step it was tried to even further increase the FPV concentration in the aqueous solvent system. The theoretical FPV starting concentration was adjusted to approximately 17 mg/ml, more precisely to 17.2 mg/ml (raw FPV) and 17.1 mg/ml (micronized FPV), using stock solutions comprising 85.45 mg/ml (raw) and 86.07 mg/ml (micronized) FPV in PEG 400. The final experimental samples contained […] and 2% dexpanthenol in phosphate buffer, pH 5.5, along with varying saponin concentrations: escin 0.10, 0.25 and 0.50 %w/v; glycyrrhizin: 1.0, 2.5 and 5.0 %w/v. The factual - as opposed to the calculated, theoretical - FPV concentrations were determined from the sample preparations by HPLC on day 0 and day 7. Table 4: Storage stability of different aqueous formulations of 17 mg/ml FPV In yet another experimental set-up a possible influence of the organic solvent PEG 400 on the solubility and stability of buffered aqueous sample preparations containing approximately 10 mg/ml FPV was investigated. PEG 400 was used at concentrations of 0, 2.5, 5.0, 7.5 and 10.0 %v/v. The samples were prepared in phosphate buffer, pH 5.5 with 2% dexpanthenol and including at least one of the saponins in the following concentrations: escin 0.01 and 0.05 %w/v; glycyrrhizin 1.0, 2.5 and 5.0 %w/v. […] The FPV contents in the sample preparations were analyzed by HPLC on day 0 and day 7, and the results are depicted in Table 5. In this experiment, only micronized FPV powder was used and was directly added to the aqueous formulations in an amount such as to yield a calculated (theoretical) concentration of 10 mg/ml. […]

solubility ([2]; organic solvent or mixture, solvent Glycerol, read-out: Solubility, Visual Inspection Conc.): < 33000 µg/mL | solubility ([2]; organic solvent or mixture, solvent PEG 400, read-out: Solubility, Visual Inspection Conc.): 90000 µg/mL (≈ 573 mM) | solubility ([2]; organic solvent or mixture, solvent PG, read-out: Solubility, Visual Inspection Conc.): < 10000 µg/mL | solubility ([2]; organic solvent or mixture, solvent PPG 400, read-out: Solubility, Visual Inspection Conc.): 25000 µg/mL (≈ 159 mM) | solubility ([2]; solvent AD (distilled water), read-out: Solubility, Visual Inspection Conc.): 5000 µg/mL (≈ 31.8 mM) | solubility ([3]; 25 °C, pure water, read-out: solubility in an aqueous solution): ~4500 µg/mL | solubility ([3]; aqueous buffer, stable pH 4 to 6, phosphate or citrate buffer system, read-out: solubility in an aqueous solution): > 10000 µg/mL | solubility ([3]; aqueous solution without buffer, 25 °C, water, without buffer, regardless of the amount of FPV added, read-out: maximum solubility of FPV in an aqueous solution): < 5000 µg/mL | highest starting concentration of dissolved FPV ([3]; micronized FPV in phosphate buffer without saponins and without dexpanthenol): 11.7 mg/mL | highest starting concentration of dissolved FPV ([3]; raw FPV in phosphate buffer pH 5.5 including 5 %w/v glycyrrhizin): 11.5 mg/mL
SMILES: NC(=O)c1nc(F)cnc1O [FPV, 6-fluoro-3-hydroxypyrazine-2-carboxamide]
solubility in water [1]: slightly soluble
